Experimental findings from patent publication US20070010541A1, “Methods for treating vascular diseases” (The General Hospital Corporation, priority 2003, published 2007) are described below.

Assay [1] concerns grl−/− embryos. The experiment in a line: Whole-organism chemical suppressor screen: suppression of the gridlock phenotype, circulation to the tail. It counts as in vivo, zebrafish. Particulars: for suppression of the gridlock phenotype (restoring circulation to the tail): grl−/− embryos in 96-well plates, circulation examined after 48 hours of development. As for the experimental part: We arrayed grl−/− embryos in 96-well plates, exposed them to small molecules from a structurally-diverse chemical library, and examined their circulation after 48 hours of development. The compounds were purchased as 5 mg/mL stock solutions in DMSO from Cambridge Chemical.
Two of 5,000 small molecules examined suppress the gridlock phenotype in grl−/− embryos, restoring circulation to the tail (FIG. 1B). We confirmed the functional restoration of the aorta by microangiography (FIGS. 1A-B) and histology (FIGS. 1E-F).
Angioblasts in zebrafish are first evident around 14 hours postfertilization (hpf) and begin to aggregate at the midline by 16 hpf (Eriksson et al., J. Morphol. 244(3):167-176, 2000; Fouquet et al., Dev. Biol. 183(1):37-48, 1997). The lumen of the aorta begins to form in the posterior trunk at 17.5 hpf, but is not complete until just prior to the initiation of circulation 24 hpf. The critical period for gs4012 suppression is between 12 and 24 hpf (FIG. 2A).
Similarly, when gs4012 is added during gastrulation and washed away at later and later timepoints, the effectiveness of suppression is increased, reaching maximal suppression by […].

The subject of assay [2] is VEGF. In words: Real-time PCR quantitation of gene expression after gs4012 exposure. The conditions noted are these: 24 hpf. In kind it is in vivo, zebrafish. As to the method:
In the case of real-time PCR, groups of 20 grl−/− embryos are left untreated or treated with a gridlock suppressor. At 24 hours post fertilization, total RNA can be extracted using the Trizol method. Equivalent amounts of total RNA from each sample can be reverse transcribed into cDNA. This cDNA can serve as template for real-time PCR to determine the relative expression quantities for the genes listed above. RT-PCR can be performed with an Applied Biosystems Sequence Detection System 7000. Taqman probes and primers can be designed using zebrafish genomic sequences made publicly available by the Wellcome Trust Sanger Institute.
We used real-time PCR to quantitate the expression of several genes believed to play roles in angioblast cell fate determination or migration. […] VEGF plays an important role in formation of the aorta. VEGF122 expression in the Xenopus hypochord acts as a chemoattractant, stimulating angioblast migration to the midline prior to aorta formation (Cleaver et al., Development 125(19):3905-3914, 1998). […]

Take `O=[N+]([O-])c1ccc(SCCc2ccncc2)cc1` [gs3999]: the “suppression of the gridlock phenotype (restoring circulation to the tail)” value in assay [1] was “identified as gridlock suppressors”.

On to `COc1ccc(SCCc2ccncc2)cc1` [gs4012], for which the VEGF expression entry in assay [2] is reported as “upregulated”. Further, in assay [1] (added during gastrulation and washed away at later timepoints), the “time at which maximal suppression is reached” value was ≤ 30 hpf. In assay [1] (after removal of suppressor), the “reversibility of suppression after removal of the suppressor” value is given as “suppression is irreversible” and the “viability of rescued mutants” value was “remain viable to adulthood”. Also, the “suppression of the gridlock phenotype (restoring circulation to the tail)” value in assay [1] is on record as “identified as gridlock suppressors”. In addition, the “relative potency as gridlock suppressor” value in assay [1] (grl−/− embryos, dose response) is reported as “more potent suppressor than gs3999”. The “suppression when treatment begins after 24 hpf” value in assay [1] (treatment begins after 24 hpf) was “Little or no suppression”.
